Earlier results on one compound are cited in US20230398127A1, “USE OF COMBINED ORAL CONTRACEPTIVES CONTAINING NOMEGESTROL ACETATE AND ESTRADIOL” (THERAMEX HQ UK LIMITED, priority 2020, published 2023).

Each structure is given as a SMILES string.

The data set deals with T1, progesterone receptor (Homo sapiens, UniProt P06401).
T1 sequence (P06401 1-933): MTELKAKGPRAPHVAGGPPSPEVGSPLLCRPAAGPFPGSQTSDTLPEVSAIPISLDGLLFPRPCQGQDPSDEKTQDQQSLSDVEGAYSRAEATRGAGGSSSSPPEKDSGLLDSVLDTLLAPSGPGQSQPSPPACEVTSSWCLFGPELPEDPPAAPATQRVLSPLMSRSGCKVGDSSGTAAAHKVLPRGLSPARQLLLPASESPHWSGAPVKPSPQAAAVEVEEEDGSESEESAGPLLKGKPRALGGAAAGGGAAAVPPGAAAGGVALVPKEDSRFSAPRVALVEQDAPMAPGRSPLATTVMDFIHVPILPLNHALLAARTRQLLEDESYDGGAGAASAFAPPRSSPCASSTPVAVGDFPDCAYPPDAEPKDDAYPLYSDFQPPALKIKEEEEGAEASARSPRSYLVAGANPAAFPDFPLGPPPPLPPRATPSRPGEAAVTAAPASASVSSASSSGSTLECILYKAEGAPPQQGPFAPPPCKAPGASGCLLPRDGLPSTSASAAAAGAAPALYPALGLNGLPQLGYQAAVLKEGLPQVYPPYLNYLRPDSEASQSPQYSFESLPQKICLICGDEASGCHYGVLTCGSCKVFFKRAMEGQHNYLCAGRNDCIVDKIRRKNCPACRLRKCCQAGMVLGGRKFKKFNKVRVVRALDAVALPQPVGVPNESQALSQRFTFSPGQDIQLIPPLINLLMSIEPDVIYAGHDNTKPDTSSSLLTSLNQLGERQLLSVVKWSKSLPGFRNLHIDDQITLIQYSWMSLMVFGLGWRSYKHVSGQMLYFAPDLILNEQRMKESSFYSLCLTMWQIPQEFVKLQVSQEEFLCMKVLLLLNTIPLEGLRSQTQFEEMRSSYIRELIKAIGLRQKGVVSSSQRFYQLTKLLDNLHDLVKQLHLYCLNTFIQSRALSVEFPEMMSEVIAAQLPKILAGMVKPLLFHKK

For the compound `CC(=O)O[C@]1(C(C)=O)CC[C@H]2[C@@H]3C=C(C)C4=CC(=O)CC[C@@H]4[C@H]3CC[C@@]21C` [nomegestrol acetate, 17α-acetoxy-6-methyl-19-norpregna-4,6-diene-3,20-dione], the “Affinity for the progesterone receptor” value is on record as “strong”.
